Experimental data from patent US6426366B1, “Pharmaceutical compositions comprising tyrphostins” (priority 1996, dated 2002).
“Also recorded” adds a separate entry of the source. Read-outs that look alike come from different tables or passages of the source.

Legend:
CD1 mice [1] = test system: CD1 mice
Excerpt: Each experimental group consisted of three mice and the results shown are the mean number of cells in a group±SD.

A-9 cells = assay: TNF-induced cytotoxicity in vitro; format: cell-based, mouse; conditions: AG (20 μM)
Description: Following one hour incubation with the tyrphostins, TNF-α was added to the cells at a concentration of 0.2 ng/ml and the cells were incubated for an additional ten hours. At the end of ten hours, the cell cultures were analyzed by FACS using propidium iodide and the extent of apoptosis in each of the cell cultures (seen as DNA fragmentation) was determined (see Novogrodsky, A., et al., Science, 264:1319-1322, 1994).
The effect of tyrphostins on TNF-induced cytotoxicity was determined in vitro using A-9 cells as described in Example 39 above.

[2] = test system: A9 mouse fibroblastic cells; assay: TNF-α-induced apoptosis and Go/G1 arrest (FACS, propidium iodide); format: cell-based
Description: In order to test the effect of tyrphostins on the TNF-α-induced apoptosis of the cells, A9 mouse fibroblastic cells were incubated for two hours with cycloheximide (50 μg/ml) after which the various tyrphostins were added at a final concentration of 20 μM except AG1801 that was added at the final concentration of 5 μM. Following one hour incubation with the tyrphostins, TNF-α was added to the cells at a concentration of 0.2 ng/ml and the cells were incubated for an additional ten hours.

CD1 mice [3] = assay: LPS-induced lethal toxicity in vivo; conditions: tyrphostin 20 mg/kg i.p. two hours prior to E. coli LPS […] i.p.
Description: In addition, the effect of tyrphostin on TNF mediated cytotoxicity in vivo was determined in mice injected with LPS (which induces TNF toxicity in vivo). E. coli LPS the concentration of 1.3 mg/mouse was injected i.p. to CD1 mice. While control mice were injected in addition with the vehicle only, the remaining mice were injected with the various tyrphostins (20 mg/kg) i.p. two hours prior to LPS injection.

CD1 mice [4] = assay: Doxorubicin lymphotoxicity (weight of spleen and thymus); format: in vivo; conditions: doxorubicin 10 mg/kg i.p. alone; 72 hours
Description: 72 hours after doxorubicin administration the mice were sacrificed and the weight of the spleen and thymus of the mice was determined as parameters of lymphotoxicity. Each experimental group consisted of three mice and the results are mean no. of cells±SD. As control, the mice received an injection of the vehicle only instead of doxorubicin.

CD1 mice [5] = assay: Reduction of doxorubicin-caused mouse mortality; format: in vivo
Description: (§1) 6 weeks old female CD1 mice were divided into the following groups:
i. Mice injected intraperitoneally (i.p.) with doxorubicin (20 mg/kg);
CD1 mice were divided into the following five groups:
i. Mice receiving, a single i.p. injection of 20 mg/kg of doxorubicin;
iii. Mice receiving a single i.p. injection of 20 mg/kg of AG1782 and two hours later an i.p. injection of 20 mg/kg of doxorubicin;
iv. Mice receiving a single i.p. injection of 20 mg/kg of AG126 and two hours later an i.p. injection of 20 mg/kg of doxorubicin.
The % mortality in each of the above groups was determined by scoring the number of dead mice every day until 10 days after injection.

SK-28 human melanoma = SK-28 human melanoma tumor xenografts in nude mice; format: in vivo
Description: CD1 athymic mice (nu/nu) were inoculated i.v. with 4×10^5/mouse SK-28 human melanoma. Doxorubicin (4 mg/kg) was injected i.p. 4 days after tumor inoculation.

[6] = test system: primary rat cardiomyocytes cultures; assay: Doxorubicin-induced cardiotoxicity in vitro (cellular beating); format: cell-based; conditions: doxorubicin 10 μM alone; 24 hours
Description: The cardiomyocyte cultures were divided into the following, four groups receiving:
Cells receiving doxorubicin at a concentration of 10 μM; and
The rate of beats-of clusters of cardiomyocytes (“mini-hearts”) was determined 24 hours after beginning of incubation.

CD1 mice [7] = assay: Doxorubicin induced myelotoxicity (femur bone marrow nucleated cells, CFU); conditions: doxorubicin 10 mg/kg i.p. alone; 3 days (FIG. 12B)
Description: CD1 mice were divided into the following groups:
Mice receiving an i.p. injection of doxorubicin (10 mg/kg) alone;
Mice receiving one injection of the vehicle and two hours later an i.p. injection of doxorubicin (10 mg kg,).
3 days later, the number of bone marrow nucleated cells and colony forming units (CFU) in the femurs of the treated mice was determined (Nikerich, D. A., et al., J. Immunopharmacol., 8:299-313, 1986). Each group contained 3 mice and the results are expressed as a means±SD.
The number of femur nucleated bone marrow cells in the treated mice was determined three days (FIG. 13A) and at various times (FIG. 13B) post doxorubicini administration.
CD1 mice were divided into five groups:
Mice receiving the vehicle alone;
Mice receiving doxorubicin (10 mg/kg) alone;
Three days after doxorubicin administration, the mice were sacrificed and the number of nucleated cells in bone marrow was determined as described above.

MCA-105 fibrosarcoma = MCA-105 fibrosarcoma lung metastases in mice; format: in vivo; conditions: for weight of the lungs of tumor bearing mice: single agent: AG1801 5 mg/kg, cisplatin 10 mg/kg or doxorubicin 10 mg/kg, 4 days after inoculation (FIG. 25)
Description: (§2) 2×10^5/mouse MCA-105 fibrosarcoma cells or Lewis Lung carcinoma cells and 5×10^4/mouse B-16 melanoma cells were injected into the tail vein of C57BL mice.
(§3) Twenty-four days after tumor inoculation, mice were sacrificed, lungs weighed and the number of metastases were scored. Each group contained 5 mice and the results are expressed as the means lungs' weights±SE.
C57BL mice were divided into the following groups:
Mice injected i.v. at the age of 6 weeks with 2×10^5 fibrosarcoma MCA105 cells and 4 days' later, receiving an injection comprising the vehicle only;
Mice injected i.v. at the age of 6 weeks with 2×10^5 fibrosarcoma MCA105 cells and 4 days' later, injected with 10 mg/kg of doxorubicin;

CD1 female mice = assay: 5 FU myelotoxicity (bone marrow nucleated cells); format: in vivo; conditions: 5 FU 80 mg/kg i.p. alone; five days (FIG. 15)
Description: CD1 female mice were divided into the following groups:
A control group receiving a single i.p. injection of the vehicle only (co-solvent: propylene carbonate-cremophor-saline);
Mice receiving a single i.p. injection of 5-fluorouracil (5 FU) at a dose of 80 mg/kg;
Five days after the administration of 5 FU to the mice, the mice were sacrificed and the number of nucleated cells in the bone marrow of one femur, were counted. Each group of mice consisted of two or three mice and the results shown are the mean number of cells counted±SD.

[8] = test system: Lewis Lung carcinoma cells; assay: Lewis lung carcinoma lung metastases in mice; format: in vivo; conditions: agent by itself: cisplatin 4 mg/kg or AG1714 20 mg/kg (FIG. 21B)
Description: as §2, §3

CD1 mice [9] = assay: Reduction of cisplatin-caused mouse mortality; format: in vivo; conditions: cisplatin 14 mg/kg alone
Excerpt: as §1

CD1 mice [10] = assay: Histopathological analysis of kidneys and small intestines after cisplatin; format: in vivo
Description: Histopathological analysis of the kidneys and small intestines of the non-treated and treated mice was performed using slices from formaline fixed tissues stained with hematoxylin eosin.

[11] = test system: human ovary carcinoma (OVCAR-3) cells; assay: OVCAR-3 human ovary carcinoma tumor volume in athymic mice; format: in vivo; conditions: agent by itself: cisplatin 4 mg/kg or AG1714 20 mg/kg; twenty days (FIG. 23)
Description: Athymic mice were inoculated subcutaneously (s.c.) with human ovary carcinoma (OVCAR-3) cells (3×10^6 cells/site). […] Twenty days post tumor inoculation the short (S) and long (L) diameters of the tumor were measured and the tumor volume (V) was calculated according to the formula:
Each group contained 5 mice and the results are expressed as the means±SE.

CD1 mice [12] = assay: Cisplatin nephrotoxicity: serum creatinine and BUN; format: in vivo; conditions: tyrphostin 10 mg/kg i.p. 2 h before cisplatin 14 mg/kg i.p.; four days (FIG. 5)
Excerpt: Mice in the control croup received injections of the vehicle only (a stock solution of ethanol: chemaphore (50:50) diluted with saline). […] Each group consisted of three mice and the results are shown as mean levels of the measured parameter±SD.

[13] = Cyclophosphamide (50 mg/kg) alone (−), 72 hours
[14] = Table 5A, Doxorubicin (4 mg/kg) alone
[15] = Table 5A, Doxorubicin (8 mg/kg) alone
[16] = Table 5B, Doxorubicin (4 mg/kg) alone
[17] = Table 5B, Doxorubicin (8 mg/kg) alone
[18] = Table 6A, Doxorubicin (8 mg/kg) alone

Description for B-16 melanoma: Mice were injected i.v. with 2×10^5 B-16 melanoma cells and 4 days after tumor inoculation each mouse received a single i.p. injection of doxorubicin (4 mg/kg or 8 mg/kg).

O=P1(N(CCCl)CCCl)NCCCO1 (stereo not drawn) [Cyclophosphamide, cyclophosphamide]
Nucleated cells in bone marrow (× 10^6) (CD1 mice [1]; [13]): 6.2 × 10^6 | Spleen (CD1 mice [1]; [13]): 52 mg | Thymus (CD1 mice [1]; [13]): 39 mg | number of nucleated cells in the bone marrow, spleen and thymus (CD1 mice [1]; cyclophosphamide 50 mg/kg alone): significant reduction in the number of nucleated cells

N#CC(C#N)=Cc1ccc([N+](=O)[O-])c(O)c1 [AG126]
live cells, % of control (A-9 cells; TNF 0.05 ng/ml): 75 % of control | live cells, % of control (A-9 cells; TNF 0.2 ng/ml): 49 % of control | live cells, % of control (A-9 cells; TNF 1.0 ng/ml): 33 % of control | live cells, % of control (A-9 cells; TNF None): 107 % of control | Apoptosis (%) ([2]; TNF-α (0.2 ng/ml) +, ten hours, cycloheximide 50 μg/ml, tyrphostins 20 μM, except AG1801 5 μM): 19.4% | Apoptosis (%) ([2]; TNF-α −, cycloheximide 50 μg/ml, tyrphostins 20 μM, except AG1801 5 μM): 8.3% | % alive mice (CD1 mice [3]): 80% | alive/total (CD1 mice [3]): 4/5

TNF-α
Cell cycle % G1 ([2]; TNF-α (0.2 ng/ml) alone): 85.8% | Cell cycle % G2 + M ([2]; TNF-α (0.2 ng/ml) alone): 6.6% | Cell cycle % S ([2]; TNF-α (0.2 ng/ml) alone): 7.6% | Apoptosis (%) ([2]; Table 9, TNF-α (0.2 ng/ml) alone): 28.7%

COc1cccc2c1C(=O)c1c(O)c3c(c(O)c1C2=O)C[C@@](O)(C(=O)CO)C[C@@H]3O[C@H]1C[C@H](N)[C@H](O)[C@H](C)O1 [Doxorubicin, doxorubicin]
weight of spleens and thymuses (CD1 mice [4]): significant reduction in the weight of spleens | Mortality (dead/total) (B-16 melanoma; [14]): 0/4 | No. of lungs' metastases (+ SD) (B-16 melanoma; [14]): 7 ± 4 | Mortality (dead/total) (B-16 melanoma; [15]): 3/4 | Mortality, percent in brackets (B-16 melanoma; [15]): 75% | No. of lungs' metastases (+ SD) (B-16 melanoma; [15]): 1 | Lungs' weight (mg + SEM) (B-16 melanoma; [16]): 306 ± 12 mg | Mortality (dead/total) (B-16 melanoma; [16]): 0/6 | Mortality (dead/total) (B-16 melanoma; [17]): 7/8 | Mortality, percent in brackets (B-16 melanoma; [17]): 88% | mortality of the mice (CD1 mice [5]; 10 i.p. doxorubicin injections 5 mg/kg over 21 days, alone): high mortality | % mortality (CD1 mice [5]; doxorubicin 20 mg/kg i.p. alone, within a week after injection): 90% | growth of the SK-28 tumor (lungs' weight, metastases) (SK-28 human melanoma; agent by itself: doxorubicin 4 mg/kg or AG1714 20 mg/kg, 24 days (FIG. 22)): markedly suppressed the growth | Cellular beating (beats/min) [6]: 15 ± 1.3 beats/min | number of beats per minute relative to control cultures [6]: about 20% | reduction in CFU (CD1 mice [7]): 55% | Mortality (dead/total) (MCA-105 fibrosarcoma; Table 6A, Doxorubicin (4 mg/kg) alone): 0/5 | Lungs' weight (mg + SEM) (MCA-105 fibrosarcoma; [18]): 170 ± 4 mg | Mortality (dead/total) (MCA-105 fibrosarcoma; [18]): 5/8 | Mortality, percent in brackets (MCA-105 fibrosarcoma; [18]): 62.5% | weight of the lungs of tumor bearing mice (MCA-105 fibrosarcoma): reduced the weight of the mice's lungs to a weight similar to that of control non tumor bearing mice

O=c1[nH]cc(F)c(=O)[nH]1 [5 FU, 5-fluorouracil]
number of nucleated cells in the bone marrow (CD1 female mice): decrease in the number of nucleated cells

N.N.[Cl][Pt][Cl] [Cisplatin, cisplatin]
anti-tumor effect (lungs' weight, established lung metastases) (B-16 melanoma; agent alone: Cisplatin (4 mg/kg) or AG1714 (20 mg/kg) (FIG. 21C)): not effective | weight of the lungs of tumor bearing mice (SK-28 human melanoma; single agent: cisplatin or AG1801 (FIG. 26)): reduced the weight of the lungs of the tumor bearing mice to an extent | anti-tumor effect (lungs' weight, established lung metastases) [8]: partial anti-tumor effect | mortality (CD1 mice [9]): all the mice in the group receiving cisplatin alone died within ten days | histopathology of kidneys (CD1 mice [10]; cisplatin 14 mg/kg alone (FIG. 7B)): large proteinaceous plaques in the proximal tubals; also recorded: large proteinaceous plaques in the proximal tubules | histopathology of small intestine (CD1 mice [10]; cisplatin 14 mg/kg alone (FIG. 7E)): severe necrosis and disintegration of the columnar intestinal epithelial cells; also recorded: severe necrosis and damage | anti-tumor effect (tumor volume) [11]: marked anti-tumor effect | anti-tumor effect (lungs' weight, established lung metastases) (MCA-105 fibrosarcoma; agent by itself: cisplatin 4 mg/kg or AG1714 20 mg/kg i.p., 24 days (FIG. 21A)): markedly inhibited the growth | weight of the lungs of tumor bearing mice (MCA-105 fibrosarcoma): reduced the weight of the mice's lungs to a weight similar to that of control non tumor bearing mice

N#CC(=Cc1ccc([N+](=O)[O-])cc1)C(N)=S [AG1744]
nephrotoxicity of cisplatin (serum creatinine level) (CD1 mice [12]): markedly reduced the nephrotoxicity of cisplatin
